From PubChem BioAssay AID192 (DTP/NCI, 2004)
Values joined by “and” are separate entries in the source; they are usually repeats but may differ in a detail not shown here. Equal entries are not always repeated. Toxic doses and inconclusive results are not listed. How the source made its calls: active means survival T/C of 150% or more; inactive means T/C below 125% in these data.

System: BDF1 mice, B16 melanoma ip, median survival T/C
Assay: NCI In Vivo Anticancer Drug Screen. Data for tumor model B16 Melanoma (intraperitoneal) in B6D2F1 (BDF1) mice
Details: endpoint: median survival time, higher = longer survival
Summary of the method: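 The ratio T/C compares compound-treated mice with vehicle-treated controls, using survival or tumor size as the endpoint in a transplantable tumor model.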

[1] = dose: 25.0 mg/kg/injection, schedule: Q01DX009 (ip), vehicle: saline
[2] = dose: 50.0 mg/kg/injection, schedule: Q01DX009 (ip), vehicle: saline
[3] = dose: 100.0 mg/kg/injection, schedule: Q01DX009 (ip), vehicle: saline
[4] = dose: 100.0 mg/kg/injection, schedule: Q01DX009 (ip), vehicle: saline with Tween-80
[5] = dose: 200.0 mg/kg/injection, schedule: Q01DX009 (ip), vehicle: saline with Tween-80
[6] = dose: 400.0 mg/kg/injection, schedule: Q01DX009 (ip), vehicle: saline with Tween-80
[7] = dose: 12.5 mg/kg/injection, schedule: Q01DX009 (ip), vehicle: Klucel (hydroxypropylcellulose) (HPC)
[8] = dose: 25.0 mg/kg/injection, schedule: Q01DX009 (ip), vehicle: Klucel (hydroxypropylcellulose) (HPC)
[9] = dose: 50.0 mg/kg/injection, schedule: Q01DX009 (ip), vehicle: Klucel (hydroxypropylcellulose) (HPC)
[10] = dose: 100.0 mg/kg/injection, schedule: Q01DX009 (ip), vehicle: Klucel (hydroxypropylcellulose) (HPC)
[11] = dose: 200.0 mg/kg/injection, schedule: Q01DX009 (ip), vehicle: Klucel (hydroxypropylcellulose) (HPC)
[12] = dose: 400.0 mg/kg/injection, schedule: Q01DX009 (ip), vehicle: Klucel (hydroxypropylcellulose) (HPC)
[13] = dose: 6.25 mg/kg/injection, schedule: Q01DX009 (ip), vehicle: saline with Tween-80
[14] = dose: 12.5 mg/kg/injection, schedule: Q01DX009 (ip), vehicle: saline with Tween-80
[15] = dose: 25.0 mg/kg/injection, schedule: Q01DX009 (ip), vehicle: saline with Tween-80
[16] = dose: 6.25 mg/kg/injection, schedule: Q01DX009 (ip), vehicle: Klucel (hydroxypropylcellulose) (HPC)
[17] = dose: 50.0 mg/kg/injection, schedule: Q01DX009 (ip), vehicle: saline with Tween-80
[18] = dose: 100.0 mg/kg/injection, schedule: Q04DX003 (ip), vehicle: Klucel (hydroxypropylcellulose) (HPC)

Measured: T/C

NNC(=O)c1ccncc1
inactive: dose: 12.5 mg/kg/injection, schedule: Q01DX009 (ip), vehicle: saline 111 % of control | dose: 16.0 mg/kg/injection, schedule: Q01DX009 (ip), vehicle: saline 98 % of control | [1] 100 % of control | dose: 32.0 mg/kg/injection, schedule: Q01DX009 (ip), vehicle: saline 98 % of control | [2] 105 % of control | dose: 64.0 mg/kg/injection, schedule: Q01DX009 (ip), vehicle: saline 100 % of control | [3] 111 % of control | dose: 128.0 mg/kg/injection, schedule: Q01DX009 (ip), vehicle: saline 90 % of control

CCOc1ccc2cc(S(=O)(=O)O)ccc2c1N
inactive: [4] 95 % of control | [5] 87 % of control | [6] 95 % of control

c1cc[c]([Sn]([c]2ccccc2)([c]2ccccc2)[n]2cccc2)cc1
inactive: dose: 6.25 mg/kg/injection, schedule: Q01DX009 (ip), vehicle: saline 115 % of control

C#CCSC(=S)NNc1ccccc1
inactive: [4] 106 % of control | [5] 112 % of control

O=C([CH-]C(=O)C(F)(F)F)c1ccccc1.O=C([CH-]C(=O)C(F)(F)F)c1ccccc1.O=C([CH-]C(=O)C(F)(F)F)c1ccccc1.O=C([CH-]C(=O)C(F)(F)F)c1ccccc1.[Eu+3].c1ccncc1
inactive: [7] 92 % of control and 96 % of control | [8] 88 % of control and 97 % of control | [9] 92 % of control and 101 % of control | [10] 93 % of control and 98 % of control | [11] 102 % of control and 107 % of control | [12] 93 % of control and 98 % of control

O=C(O)c1ccccc1C(=O)Nc1cc(Cl)ccc1Cl
inactive: [9] 100 % of control | [10] 94 % of control

c1ccc2c(CC3=NCCN3)cccc2c1
inactive: [13] 102 % of control | [14] 100 % of control | [15] 102 % of control

CCC[CH2][Sn]1([CH2]CCC)[O]C2C(CO)OC(n3ccc(N)nc3=O)C2[O]1 (stereo unspecified)
inactive: dose: 0.78 mg/kg/injection, schedule: Q01DX009 (ip), vehicle: Klucel (hydroxypropylcellulose) (HPC) 99 % of control | dose: 1.56 mg/kg/injection, schedule: Q01DX009 (ip), vehicle: Klucel (hydroxypropylcellulose) (HPC) 123 % of control | dose: 3.12 mg/kg/injection, schedule: Q01DX009 (ip), vehicle: Klucel (hydroxypropylcellulose) (HPC) 116 % of control | [16] 104 % of control and 124 % of control

NC1=NC(=O)C(c2ccccc2)O1 (stereo unspecified)
inactive: [7] 94 % of control | [8] 97 % of control | [10] 102 % of control

C[C@]1(O)CC[C@H]2[C@@H]3CCC4=CC(=O)CC[C@]4(C)[C@@]3(F)[C@@H](O)C[C@@]21C
inactive: dose: 12.5 mg/kg/injection, schedule: Q02DX009 (ip), vehicle: Klucel (hydroxypropylcellulose) (HPC) 92 % of control | dose: 25.0 mg/kg/injection, schedule: Q02DX009 (ip), vehicle: Klucel (hydroxypropylcellulose) (HPC) 100 % of control | dose: 50.0 mg/kg/injection, schedule: Q02DX009 (ip), vehicle: Klucel (hydroxypropylcellulose) (HPC) 120 % of control | dose: 100.0 mg/kg/injection, schedule: Q02DX009 (ip), vehicle: Klucel (hydroxypropylcellulose) (HPC) 107 % of control | dose: 200.0 mg/kg/injection, schedule: Q02DX009 (ip), vehicle: Klucel (hydroxypropylcellulose) (HPC) 99 % of control | dose: 400.0 mg/kg/injection, schedule: Q02DX009 (ip), vehicle: Klucel (hydroxypropylcellulose) (HPC) 92 % of control

Cc1[nH]c(=S)sc1C
inactive: [1] 102 % of control | [2] 91 % of control | [3] 102 % of control

Cn1nnnc1N/N=C/c1ccccc1
inactive: [4] 93 % of control | [5] 95 % of control | [6] 90 % of control

O=[N+]([O-])c1cc([N+](=O)[O-])c(Br)cc1Cl
inactive: dose: 2.5 mg/kg/injection, schedule: Q01DX009 (ip), vehicle: saline with Tween-80 92 % of control | dose: 5.0 mg/kg/injection, schedule: Q01DX009 (ip), vehicle: saline with Tween-80 98 % of control | dose: 10.0 mg/kg/injection, schedule: Q01DX009 (ip), vehicle: saline with Tween-80 87 % of control | dose: 20.0 mg/kg/injection, schedule: Q01DX009 (ip), vehicle: Klucel (hydroxypropylcellulose) (HPC) 94 % of control

CCC(CCCN(CC)CCc1ccccc1)OC(=O)c1cc(OC)c(OC)c(OC)c1 (stereo unspecified)
inactive: dose: 4.68 mg/kg/injection, schedule: Q01DX009 (ip), vehicle: saline 104 % of control | dose: 9.37 mg/kg/injection, schedule: Q01DX009 (ip), vehicle: saline 108 % of control | dose: 18.75 mg/kg/injection, schedule: Q01DX009 (ip), vehicle: saline 103 % of control | dose: 37.5 mg/kg/injection, schedule: Q01DX009 (ip), vehicle: saline 100 % of control | dose: 75.0 mg/kg/injection, schedule: Q01DX009 (ip), vehicle: saline 91 % of control

C1COC(NC2CC3CCC2C3)=N1 (stereo unspecified)
inactive: [13] 107 % of control | [14] 100 % of control | [15] 100 % of control

CCCC(=O)NC1=C(N2CC2)C(=O)C(NC(=O)CCC)=C(N2CC2)C1=O
inactive: dose: 1.0 mg/kg/injection, schedule: Q01DX009 (ip), vehicle: saline 86 % of control | dose: 2.0 mg/kg/injection, schedule: Q01DX009 (ip), vehicle: saline 118 % of control

CCCC(C)c1ccccc1O (stereo unspecified)
inactive: [15] 108 % of control | [17] 108 % of control | [4] 92 % of control

Cc1c[n+]2c3ccccc3c3ccccc3c2s1
inactive: dose: 10.0 mg/kg/injection, schedule: Q01DX009 (ip), vehicle: saline 105 % of control | dose: 20.0 mg/kg/injection, schedule: Q01DX009 (ip), vehicle: saline 105 % of control

CCCCCCCCC(=O)CCC
inactive: [18] 88 % of control | dose: 200.0 mg/kg/injection, schedule: Q04DX003 (ip), vehicle: Klucel (hydroxypropylcellulose) (HPC) 90 % of control | dose: 400.0 mg/kg/injection, schedule: Q04DX003 (ip), vehicle: Klucel (hydroxypropylcellulose) (HPC) 94 % of control

C=CCOP(=O)(OCC=C)OCC=C
inactive: [8] 96 % of control | [9] 100 % of control

C=C(Br)CN(CC)CC
inactive: [16] 100 % of control | [7] 92 % of control | [8] 103 % of control

Cc1ccn2ncnc2c1
inactive: [2] 89 % of control | [3] 86 % of control

Nc1ccc2c(c1)CN1C(=O)c3ccccc3C1=N2
inactive: [14] 101 % of control | [15] 103 % of control | [17] 111 % of control

O=C(O)CC[P+](c1ccccc1)(c1ccccc1)c1ccccc1
inactive: dose: 100.0 mg/kg/injection, schedule: Q04DX003 (ip), vehicle: saline 101 % of control | dose: 200.0 mg/kg/injection, schedule: Q04DX003 (ip), vehicle: saline 116 % of control | dose: 400.0 mg/kg/injection, schedule: Q04DX003 (ip), vehicle: saline 116 % of control

O=C(Nc1ccccc1)Oc1ccc(Cl)cc1
inactive: [10] 93 % of control | [11] 94 % of control | [12] 99 % of control

CC(=O)[S][Pb]([c]1ccccc1)([c]1ccccc1)[c]1ccccc1
inactive: dose: 0.5 mg/kg/injection, schedule: Q01DX009 (ip), vehicle: saline with Tween-80 97 % of control | dose: 1.0 mg/kg/injection, schedule: Q01DX009 (ip), vehicle: saline with Tween-80 93 % of control | dose: 2.0 mg/kg/injection, schedule: Q01DX009 (ip), vehicle: saline with Tween-80 92 % of control | dose: 4.0 mg/kg/injection, schedule: Q01DX009 (ip), vehicle: saline with Tween-80 101 % of control

COc1cc(C(=O)CO)cc(OC)c1OC(C)=O
inactive: dose: 100.0 mg/kg/injection, schedule: Q04DX003 (ip), vehicle: saline with Tween-80 95 % of control | dose: 200.0 mg/kg/injection, schedule: Q04DX003 (ip), vehicle: saline with Tween-80 87 % of control

Cc1cccc(C)c1NC(=O)Nc1ccc2c(c1)OCO2
inactive: [18] 92 % of control

CNC(Cc1ccccc1)c1ccc(OC)cc1 (stereo unspecified)
inactive: [9] 96 % of control | [10] 96 % of control
